The text below walks through data of patent US7557092B2, “Purinergic modulation of smell” (University of Utah Research Foundation, priority 2002, dated 2009).

Assay [1] deals with P2Y4 (Homo sapiens, UniProt P51582). Conditions: cDNA from Human chromosome X; cited from earlier work.
Assay [2] relates to sustentacular cells in mouse olfactory epithelium slices. Briefly: confocal calcium imaging of fluo-4 AM loaded olfactory epithelium slices, sustentacular cells. In kind it is cell-based. Conditions: 10 μM agonist superfused onto slice. The text has this:
To study the effects of ATP on odor responses, acutely prepared slices of mouse olfactory epithelium were used. Confocal imaging of fluo-4 AM-loaded olfactory epithelium slices allows simultaneous recording from identified structures within the olfactory epithelium, i.e., both ORNs and sustentacular cells. […] The difference in robustness can be due to poor access to the ATP stimulus: odorant receptors are on the cilia of the ORNs, which extend beyond the outer edge of the olfactory epithelium, whereas purinergic receptors are located deeper within the olfactory epithelium. […] The latency of activation for the ATP-evoked calcium transient was shorter in the ORN (FIG. 3B2, solid up arrowhead) than in sustentacular cells (FIG. 3B3, open down arrowhead). Collectively, this was consistent with ORNs expressing the faster P2X receptors, and the sustentacular cells expressing the slower G-protein coupled P2Y receptors.
To prepare olfactory epithelium slices, neonatal mice (postnatal day 0-6) were quickly decapitated, and the skin and lower jaw were removed. Tissue was mounted in ice cold Ringers onto a vibratome-cutting block and 300 μm slices were made. Primary cultures of mouse ORNs were made using the same protocol and culture conditions as described for rat olfactory receptor neurons (Vargas and Lucero, 1999a). Briefly, tissue was placed in divalent cation-free Ringers containing 10 mg/ml bovine serum albumin, 1 mg/ml deoxyribonuclease II and 44 U/ml dispase, incubated at 37° C. for 45 min. The tissue was washed, triturated, and filtered through a […] mesh and […] cells were plated onto concanavalin A-coated coverslips and allowed to settle for 20 min. An additional 1.5 ml of culture medium was added (DMEM supplemented with […] ascorbic acid, 1X insulin-transferrin-seleniumX (GIBCO BRL), 2 mM glutamine, 100 U/ml penicillin G and […] streptomycin).
[Ca^2+]i was determined using confocal imaging of fluo-4 AM (18 μM; Molecular Probes) loaded cells and slices. Cells or slices were placed in a laminar flow chamber (Warner Instruments) and perfused continuously with Ringers solution at a flow rate of 1.5-2.0 ml/min. Ringers contained (mM): 140 NaCl, 5 KCl, 1 MgCl2, 2 CaCl2, 10 HEPES, 10 glucose, […] and 400 nM tetrodotoxin. Test solutions were applied using bath exchange and a small volume loop injector (200 μl). A Zeiss LSM 510 confocal laser scanning system was used for data collection and analysis. Time series experiments were performed collecting 1400×700 pixel images at 0.2-0.4 Hz. The fluorometric signals obtained are expressed as relative fluorescence change, ΔF/F═(F−F0)/F0, where F0 is the basal fluorescence level. Increases in F greater than 10% above baseline noise were considered responses.

In assay [3] the test system is ORNs in neonatal mouse OE slices. The assay can be described thus: on-cell current-clamp recording of cyclic nucleotide-induced electrical responses. In kind it is cell-based. The settings on record: 10 μM ATP co-applied with cyclic nucleotide mixture (IBMX, CPT-cAMP, 8-Br-cGMP), n=3 cells. The procedure:
Filled triangles correspond to the time of loop injection of the test solutions. […] Various test solutions were superfused onto the slice for 30 seconds, indicated by the shaded region. The cell was allowed to recover for 7 minutes after each test application. Note that the coapplication of ATP (10 μM) and the mixture suppressed the evoked membrane potential changes. […] N=3 from three slices, also indicated in each column.
Electro-olfactogram and on-cell recordings: Slices of P0-P6 mouse OE were prepared as described above and mounted in a perfusion chamber with a bath flow of […]. Test chemicals were introduced using a rotary injection valve (Rheodyne, Cotati, Calif.). The electro-olfactogram (EOG) recording electrode (3 M NaCl in 1% agar; tip diameter, 5-10 um) was positioned along the dorsal portion of the nasal septum. The differential electrode (identical to the recording electrode) was positioned over skull cartilage and an […] ground electrode was connected to the bath solution via a 3 M KCl agar bridge. […]
For the noninvasive on-cell recordings (Chiu et al., 1997), the same electronics were used as described for nystatin-patch experiments. […] The time course of solution delivery was determined by placing an electrode in a slice and switching from Ringer's solution to distilled water. […]

Assay [4] relates to P2X and P2Y purinergic receptors. The settings on record: cited from earlier work.

SMILES strings stand for the structures.

Chain of P2Y4 (P51582 whole entry, the tested form may be a part): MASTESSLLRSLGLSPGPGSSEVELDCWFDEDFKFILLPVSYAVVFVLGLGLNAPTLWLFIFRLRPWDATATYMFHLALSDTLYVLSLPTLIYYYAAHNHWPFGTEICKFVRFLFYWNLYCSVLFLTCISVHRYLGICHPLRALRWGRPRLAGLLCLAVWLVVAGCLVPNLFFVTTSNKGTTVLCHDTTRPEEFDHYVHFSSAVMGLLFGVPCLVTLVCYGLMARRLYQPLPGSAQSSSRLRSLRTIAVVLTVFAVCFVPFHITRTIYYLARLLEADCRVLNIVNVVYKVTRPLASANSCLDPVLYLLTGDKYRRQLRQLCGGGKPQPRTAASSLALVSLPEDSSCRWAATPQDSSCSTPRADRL

As for `Nc1ncnc2c1ncn2[C@@H]1O[C@H](COP(=O)(O)OP(=O)(O)OP(=O)(O)O)[C@@H](O)[C@H]1O` [ATP, Adenosine 5′-triphosphate], in assay [1], the Agonist activity result was “UTP > UDP (ATP inactive)”. Moreover, the “agonist-evoked calcium transients in sustentacular cells” value in assay [2] is on record as “evoked calcium transients”. Besides, the “reduction of the electrical activity of the ORN” value in assay [3] was 67±2%. For the same compound, the “concentrations that activate P2X and P2Y purinergic receptors” value in assay [4] is 0.1 to 10 µM.
